Tested on: MV-4-11 cells
Assay: Gene expression microarray analysis (Affymetrix PrimeView) and GSEA
Assay type: cell-based, human
Parameters: RFU PODN (11730768_x_at) / Fold change /veh PODN (11730768_x_at) / RFU LINC00158 (11744669_a_at) / Fold change /veh LINC00158 (11744669_a_at) / RFU DUSP10 (11751237_a_at) / Fold change /veh DUSP10 (11751237_a_at) / RFU ID3 (11757404_x_at) / Fold change /veh ID3 (11757404_x_at) / RFU PLEKHG5 (11737974_s_at) / Fold change /veh PLEKHG5 (11737974_s_at) / RFU LRRC4B (11730491_at) / Fold change /veh LRRC4B (11730491_at) / RFU GIMAP4 (11747438_a_at) / Fold change /veh GIMAP4 (11747438_a_at) / RFU KRT8 (11758183_x_at) / Fold change /veh KRT8 (11758183_x_at) / RFU CNN1 (11734310_a_at) / Fold change /veh CNN1 (11734310_a_at) / RFU VPS37D (11726825_at) / Fold change /veh VPS37D (11726825_at) / RFU C10orf10 (11716522_x_at) / Fold change /veh C10orf10 (11716522_x_at) / RFU KIR2DL2 /// KIR2DL4 /// KIR2DL5A /// KIR2DL5B /// KIR2DS1 /// KIR2DS2 /// KIR2DS3 /// KIR2DS4 /// KIR3DL3 /// KIR3DL3 /// KIR3DS1 (11738374_at) / Fold change /veh KIR2DL2 /// KIR2DL4 /// KIR2DL5A /// KIR2DL5B /// KIR2DS1 /// KIR2DS2 /// KIR2DS3 /// KIR2DS4 /// KIR3DL3 /// KIR3DL3 /// KIR3DS1 (11738374_at) / RFU C1QL1 (11718748_at) / Fold change /veh C1QL1 (11718748_at) / RFU TMPRSS4 (11747572_a_at) / Fold change /veh TMPRSS4 (11747572_a_at) / RFU HAMP (11756126_x_at) / Fold change /veh HAMP (11756126_x_at) / RFU RNFT2 (11725882_a_at) / Fold change /veh RNFT2 (11725882_a_at) / RFU NR4A2 (11747474_a_at) / Fold change /veh NR4A2 (11747474_a_at) / RFU ABCC12 (11746883_a_at) / Fold change /veh ABCC12 (11746883_a_at) / RFU TMEM136 (11760407_x_at) / Fold change /veh TMEM136 (11760407_x_at) / RFU CLDN22 /// WWC2 (11732394_at) / Fold change /veh CLDN22 /// WWC2 (11732394_at) / RFU HLA-DPB1 (11760878_x_at) / Fold change /veh HLA-DPB1 (11760878_x_at) / RFU SPINT1 (11716480_a_at) / Fold change /veh SPINT1 (11716480_a_at) / RFU GAP43 (11754022_s_at) / Fold change /veh GAP43 (11754022_s_at) / RFU A4GNT (11735810_at) / Fold change /veh A4GNT (11735810_at) / RFU PRB3 (11715151_x_at) / Fold change /veh PRB3 (11715151_x_at) / RFU TUBB4B (11761932_at) / Fold change /veh TUBB4B (11761932_at) / RFU CAPN14 (11732068_a_at) / Fold change /veh CAPN14 (11732068_a_at) / RFU TMCC2 (11721928_a_at) / Fold change /veh TMCC2 (11721928_a_at) / RFU IRGQ (11745062_a_at) / Fold change /veh IRGQ (11745062_a_at) / RFU FAM174B (11720279_a_at) / Fold change /veh FAM174B (11720279_a_at) / RFU TMPRSS4 (11748680_a_at) / Fold change /veh TMPRSS4 (11748680_a_at) / RFU FAM212B (11763350_a_at) / Fold change /veh FAM212B (11763350_a_at) / RFU PLEKHG5 (11743358_a_at) / Fold change /veh PLEKHG5 (11743358_a_at) / RFU ZSCAN30 (11745921_a_at) / Fold change /veh ZSCAN30 (11745921_a_at) / RFU CMKLR1 (11741424_a_at) / Fold change /veh CMKLR1 (11741424_a_at) / RFU LOC101060620 /// MAPK8IP1 (11723275_at) / Fold change /veh LOC101060620 /// MAPK8IP1 (11723275_at) / RFU SPTSSB (11747773_x_at) / Fold change /veh SPTSSB (11747773_x_at) / RFU PRSS12 (11739890_at) / Fold change /veh PRSS12 (11739890_at) / RFU BIN1 (11741810_x_at) / Fold change /veh BIN1 (11741810_x_at) / RFU WNT11 (11732464_a_at) / Fold change /veh WNT11 (11732464_a_at) / RFU C10orf10 (11716521_a_at) / Fold change /veh C10orf10 (11716521_a_at) / RFU C5orf56 (11738089_at) / Fold change /veh C5orf56 (11738089_at) / RFU CYB561 (11721691_x_at) / Fold change /veh CYB561 (11721691_x_at) / RFU ANKRD19P (11752326_a_at) / Fold change /veh ANKRD19P (11752326_a_at) / RFU OR2T12 /// OR2T33 /// OR2T8 (11738714_s_at) / Fold change /veh OR2T12 /// OR2T33 /// OR2T8 (11738714_s_at) / RFU VCAN (11748164_a_at) / Fold change /veh VCAN (11748164_a_at) / RFU JSRP1 (11732532_at) / Fold change /veh JSRP1 (11732532_at) / RFU KRTAP10-11 (11738290_x_at) / Fold change /veh KRTAP10-11 (11738290_x_at) / RFU MYO3A (11730013_a_at) / Fold change /veh MYO3A (11730013_a_at) / RFU EBF3 (11725865_a_at) / Fold change /veh EBF3 (11725865_a_at) / RFU CAMK2N1 (11719241_x_at) / Fold change /veh CAMK2N1 (11719241_x_at) / RFU C5orf56 (11738088_a_at) / Fold change /veh C5orf56 (11738088_a_at) / RFU OLFML3 (11715873_a_at) / Fold change /veh OLFML3 (11715873_a_at) / RFU LOC100653217 /// NTM (11731650_a_at) / Fold change /veh LOC100653217 /// NTM (11731650_a_at) / RFU MAPK11 (11762145_a_at) / Fold change /veh MAPK11 (11762145_a_at) / RFU FIZ1 (11724087_x_at) / Fold change /veh FIZ1 (11724087_x_at) / RFU OASL (11726364_x_at) / Fold change /veh OASL (11726364_x_at) / RFU SOX15 (11748057_x_at) / Fold change /veh SOX15 (11748057_x_at) / RFU CD79A (11719716_a_at) / Fold change /veh CD79A (11719716_a_at) / RFU HIST1H1D (11736915_at) / Fold change /veh HIST1H1D (11736915_at) / RFU CASKIN2 (11723855_a_at) / Fold change /veh CASKIN2 (11723855_a_at) / RFU LOC730098 (11760151_x_at) / Fold change /veh LOC730098 (11760151_x_at) / RFU OR4N2 (11742367_at) / Fold change /veh OR4N2 (11742367_at) / RFU PRRT2 (11749266_a_at) / Fold change /veh PRRT2 (11749266_a_at) / RFU SNX32 (11753110_a_at) / Fold change /veh SNX32 (11753110_a_at) / RFU CDHR5 (11726645_a_at) / Fold change /veh CDHR5 (11726645_a_at) / RFU RCAN1 (11760418_a_at) / Fold change /veh RCAN1 (11760418_a_at) / RFU FAM167A (11723789_a_at) / Fold change /veh FAM167A (11723789_a_at) / RFU FAM26E (11764081_at) / Fold change /veh FAM26E (11764081_at) / RFU ISYNA1 (11749810_s_at) / Fold change /veh ISYNA1 (11749810_s_at) / RFU ACY1 (11761880_at) / Fold change /veh ACY1 (11761880_at) / RFU 11764098_at / Fold change /veh 11764098_at / RFU SAMD14 (11745864_x_at) / Fold change /veh SAMD14 (11745864_x_at) / RFU NPB (11741838_a_at) / Fold change /veh NPB (11741838_a_at) / RFU TMPRSS6 (11731388_a_at) / Fold change /veh TMPRSS6 (11731388_a_at) / RFU KRTAP10-2 (11738614_at) / Fold change /veh KRTAP10-2 (11738614_at) / RFU ARHGAP8 /// PRR5-ARHGAP8 (11727945_x_at) / Fold change /veh ARHGAP8 /// PRR5-ARHGAP8 (11727945_x_at) / RFU KRTAP5-7 /// NADSYN1 (11734609_at) / Fold change /veh KRTAP5-7 /// NADSYN1 (11734609_at) / RFU RASL12 (11751679_a_at) / Fold change /veh RASL12 (11751679_a_at) / RFU CDKN2B (11736163_a_at) / Fold change /veh CDKN2B (11736163_a_at) / RFU PRF1 (11729649_at) / Fold change /veh PRF1 (11729649_at) / RFU, ZNF638 /// ZNF638-IT1 / Fold change vs veh, ZNF638 /// ZNF638-IT1 / RFU, PANK3 / Fold change vs veh, PANK3 / RFU, SH3YL1 / Fold change vs veh, SH3YL1 / RFU, ZEB2 / Fold change vs veh, ZEB2 / RFU, NRIP1 / Fold change vs veh, NRIP1 / RFU, PTTG1IP / Fold change vs veh, PTTG1IP / RFU, CAPN2 / Fold change vs veh, CAPN2 / RFU, MED14 / Fold change vs veh, MED14 / RFU, SNORA58 / Fold change vs veh, SNORA58 / RFU, C1orf63 / Fold change vs veh, C1orf63 / RFU, LRRFIP1 / Fold change vs veh, LRRFIP1 / RFU, NDUFAF7 / Fold change vs veh, NDUFAF7 / RFU, SLC12A2 / Fold change vs veh, SLC12A2 / RFU, IBTK / Fold change vs veh, IBTK / RFU, ESF1 / Fold change vs veh, ESF1 / Fold change vs veh, TMEM50B / RFU, TAOK1 / Fold change vs veh, TAOK1 / RFU, ACBD3 / Fold change vs veh, ACBD3 / RFU, TMA16 / Fold change vs veh, TMA16 / RFU, RWDD3 / Fold change vs veh, RWDD3 / RFU, BCAT1 / Fold change vs veh, BCAT1 / RFU, EDEM3 / Fold change vs veh, EDEM3 / RFU, TMEM33 / Fold change vs veh, TMEM33 / RFU, WDR75 / Fold change vs veh, WDR75 / RFU, AHCTF1 / Fold change vs veh, AHCTF1 / RFU, TFRC / Fold change vs veh, TFRC / RFU, ZDHHC17 / Fold change vs veh, ZDHHC17 / RFU, NOM1 / Fold change vs veh, NOM1 / RFU, ARL8B / Fold change vs veh, ARL8B / RFU, ZBTB11 / Fold change vs veh, ZBTB11 / RFU, TAMM41 / Fold change vs veh, TAMM41 / RFU, KIAA1704 /// LOC100996395 / Fold change vs veh, KIAA1704 /// LOC100996395 / RFU, ING1 / Fold change vs veh, ING1 / RFU, TRMT61B / Fold change vs veh, TRMT61B / RFU, FUBP3 / Fold change vs veh, FUBP3 / RFU, TP53 / Fold change vs veh, TP53 / RFU, TNKS2 / Fold change vs veh, TNKS2 / RFU, ZFP14 / Fold change vs veh, ZFP14 / RFU, ACTR2 / Fold change vs veh, ACTR2 / RFU, PPP3R1 / Fold change vs veh, PPP3R1 / RFU, PIK3R1 / Fold change vs veh, PIK3R1 / RFU, HNRNPA1 / Fold change vs veh, HNRNPA1 / RFU, RNF170 / Fold change vs veh, RNF170 / RFU, ZNF28 / Fold change vs veh, ZNF28 / RFU, RNGTT / Fold change vs veh, RNGTT / RFU, OGT / Fold change vs veh, OGT / RFU, BRD1 / Fold change vs veh, BRD1 / RFU, MARS / Fold change vs veh, MARS / RFU, ZNF655 / Fold change vs veh, ZNF655 / RFU, FAHD1 / Fold change vs veh, FAHD1 / RFU, BDP1 / Fold change vs veh, BDP1 / RFU, LRRCC1 / Fold change vs veh, LRRCC1 / RFU, ARID1A / Fold change vs veh, ARID1A / RFU, ZNF146 / Fold change vs veh, ZNF146 / RFU, ZNF330 / Fold change vs veh, ZNF330 / RFU, GPN3 / Fold change vs veh, GPN3 / RFU, C9orf123 / Fold change vs veh, C9orf123 / RFU, N4BP2L2 / Fold change vs veh, N4BP2L2 / RFU, ARFIP1 / Fold change vs veh, ARFIP1 / RFU, FAM179B / Fold change vs veh, FAM179B / RFU, BCL10 / Fold change vs veh, BCL10 / RFU, UHRF1BP1L / Fold change vs veh, UHRF1BP1L / RFU, BET1 / Fold change vs veh, BET1 / RFU, CNOT2 / Fold change vs veh, CNOT2 / RFU, ZNF268 / Fold change vs veh, ZNF268 / Fold change vs veh, ZNF507 / RFU, DGCR2 / Fold change vs veh, DGCR2 / RFU, WDSUB1 / Fold change vs veh, WDSUB1 / Fold change vs veh, HSP90B1 /// MIR3652 / RFU, ADSS / Fold change vs veh, ADSS / RFU, GK / Fold change vs veh, GK / RFU, ZNF148 / Fold change vs veh, ZNF148 / RFU, TAF9 / Fold change vs veh, TAF9 / RFU, SLC1A5 / Fold change vs veh, SLC1A5 / RFU, SLMO2 / Fold change vs veh, SLMO2 / RFU, ABCC4 / Fold change vs veh, ABCC4 / RFU, LOC101060439 /// RAP1B / Fold change vs veh, LOC101060439 /// RAP1B / RFU, RFX7 / Fold change vs veh, RFX7 / RFU, GTPBP10 / Fold change vs veh, GTPBP10 / RFU, CNEP1R1 / Fold change vs veh, CNEP1R1 / RFU, BIVM-ERCC5 /// ERCC5 / Fold change vs veh, BIVM-ERCC5 /// ERCC5 / RFU, ILF3 / Fold change vs veh, ILF3 / RFU 11762660_at / Fold change /veh 11762660_at / RFU VCAN (11757783_s_at) / Fold change /veh VCAN (11757783_s_at) / RFU DDX43 (11728927_at) / Fold change /veh DDX43 (11728927_at) / RFU KRT8 (11758188_x_at) / Fold change /veh KRT8 (11758188_x_at) / RFU NKD1 (11759106_at) / Fold change /veh NKD1 (11759106_at) / RFU SRD5A1 (11742802_a_at) / Fold change /veh SRD5A1 (11742802_a_at) / RFU TPSAB1 /// TPSB2 (11721975_s_at) / Fold change /veh TPSAB1 /// TPSB2 (11721975_s_at) / RFU GSTM3 (11746129_a_at) / Fold change /veh GSTM3 (11746129_a_at) / RFU IL23R (11737362_x_at) / Fold change /veh IL23R (11737362_x_at) / RFU TMEM51 (11727254_a_at) / Fold change /veh TMEM51 (11727254_a_at) / RFU PIWIL2 (11732686_x_at) / Fold change /veh PIWIL2 (11732686_x_at) / RFU ORM1 (11744905_x_at) / Fold change /veh ORM1 (11744905_x_at) / RFU CCDC152 (11743942_at) / Fold change /veh CCDC152 (11743942_at) / RFU ECM1 (11717891_a_at) / Fold change /veh ECM1 (11717891_a_at) / RFU IL23R (11748794_a_at) / Fold change /veh IL23R (11748794_a_at) / RFU TNFAIP8L3 (11732012_x_at) / Fold change /veh TNFAIP8L3 (11732012_x_at) / RFU MBOAT4 (11741988_at) / Fold change /veh MBOAT4 (11741988_at) / RFU 11764193_at / Fold change /veh 11764193_at / RFU TMEM53 (11763286_at) / Fold change /veh TMEM53 (11763286_at) / RFU MAGEB2 (11727129_at) / Fold change /veh MAGEB2 (11727129_at) / RFU TMEM200A (11744735_a_at) / Fold change /veh TMEM200A (11744735_a_at) / RFU CCDC152 (11751479_a_at) / Fold change /veh CCDC152 (11751479_a_at) / RFU FAM211A (11726209_a_at) / Fold change /veh FAM211A (11726209_a_at) / RFU RGS16 (11746705_a_at) / Fold change /veh RGS16 (11746705_a_at) / RFU VCAN (11755009_s_at) / Fold change /veh VCAN (11755009_s_at) / RFU RHOB (11743442_s_at) / Fold change /veh RHOB (11743442_s_at) / RFU RGS16 (11720943_a_at) / Fold change /veh RGS16 (11720943_a_at) / RFU RGS16 (11720944_at) / Fold change /veh RGS16 (11720944_at) / RFU, VPS4B / Fold change vs veh, VPS4B / RFU, CREB1 / Fold change vs veh, CREB1 / RFU, DNAJC13 / Fold change vs veh, DNAJC13 / RFU, GNAQ / Fold change vs veh, GNAQ / RFU, CDK5R1 / Fold change vs veh, CDK5R1 / RFU, ZRANB3 / Fold change vs veh, ZRANB3 / RFU, CUL4A / Fold change vs veh, CUL4A / RFU, CCNY / Fold change vs veh, CCNY / RFU, UFL1 / Fold change vs veh, UFL1 / RFU, COG3 / Fold change vs veh, COG3 / RFU, DIAPH2 / Fold change vs veh, DIAPH2 / RFU, SKA2 / Fold change vs veh, SKA2 / RFU, AFF3 / Fold change vs veh, AFF3 / RFU, LMF1 / Fold change vs veh, LMF1 / RFU, IPO11 / Fold change vs veh, IPO11 / RFU, DFFB / Fold change vs veh, DFFB / RFU, FOXP1 / Fold change vs veh, FOXP1 / RFU, CARD8 / Fold change vs veh, CARD8 / RFU, STRN3 / Fold change vs veh, STRN3 / RFU, ADK / Fold change vs veh, ADK / RFU, RASSF2 / Fold change vs veh, RASSF2 / RFU, WIPF1 / Fold change vs veh, WIPF1 / RFU, LARP1B / Fold change vs veh, LARP1B / RFU, RASA1 / Fold change vs veh, RASA1 / RFU, RB1 / Fold change vs veh, RB1 / RFU, PPFIA1 / Fold change vs veh, PPFIA1 / RFU, MAT2A / Fold change vs veh, MAT2A / RFU, CCT5 / Fold change vs veh, CCT5 / RFU, WDR92 / Fold change vs veh, WDR92 / RFU, CUX1 / Fold change vs veh, CUX1 / RFU, TTC7A / Fold change vs veh, TTC7A / RFU, TMEM135 / Fold change vs veh, TMEM135 / RFU, DEPTOR / Fold change vs veh, DEPTOR / RFU, CPM / Fold change vs veh, CPM / RFU, DNAJB6 / Fold change vs veh, DNAJB6 / RFU, CACNA2D3 / Fold change vs veh, CACNA2D3 / RFU, DTX4 / Fold change vs veh, DTX4 / RFU, TFCP2 / Fold change vs veh, TFCP2 / RFU, GMCL1 /// GMCL1P1 / Fold change vs veh, GMCL1 /// GMCL1P1 / RFU, AEBP2 / Fold change vs veh, AEBP2 / RFU, SNHG1 /// SNORD22 /// SNORD25 /// SNORD26 /// SNORD27 /// SNORD28 /// SNORD29 /// SNORD31 / Fold change vs veh, SNHG1 /// SNORD22 /// SNORD25 /// SNORD26 /// SNORD27 /// SNORD28 /// SNORD29 /// SNORD31 / Fold change (Aza/veh), C12orf56 (ProbeSet 11735607_a_at) / Fold change (ACY-1035/veh), C12orf56 (ProbeSet 11735607_a_at) / Fold change (Aza/veh), FGFR1OP (ProbeSet 11751329_s_at) / Fold change (ACY-1035/veh), FGFR1OP (ProbeSet 11751329_s_at) / Fold change (Aza/veh), VPS36 (ProbeSet 11739960_a_at) / Fold change (ACY-1035/veh), VPS36 (ProbeSet 11739960_a_at) / RFU SYPL1 (11715823_x_at) / Fold change /veh SYPL1 (11715823_x_at) / RFU IGFBP7 (11715501_s_at) / Fold change /veh IGFBP7 (11715501_s_at) / RFU REEP3 (11722064_at) / Fold change /veh REEP3 (11722064_at) / RFU IGLL1 (11728026_x_at) / Fold change /veh IGLL1 (11728026_x_at): dose or concentration left out as unconfirmed
Conditions: MV-4-11 cells, 48 hours

Nc1ccc(-c2cccs2)cc1NC(=O)c1ccc2c(c1)cc(C1CC1)n2CCN1CCOCC1 [ACY-1035] was tested, and the “Fold change /veh OR2T12 /// OR2T33 /// OR2T8 (11738714_s_at)” value was 1.06.
